Values quoted from earlier work, collected in patent publication US20230158012A1, “ORAL LIQUID FORMULATIONS OF LENVATINIB” (SHILPA MEDICARE LIMITED, priority 2020, published 2023).

Details: 5% w/w aqueous solution or suspension

SMILES	pH value
O=C1O[C@H](CO)[C@@H](O)[C@H](O)[C@H]1O [Gluconolactone]	2.40
O=C([O-])O.[Na+] [sodium hydrogencarbonate]	8.15
NCC(=O)O [glycine]	6.17
[O]=[Mg] [magnesium oxide]	10.63
O=C([O-])CC(O)(CC(=O)[O-])C(=O)[O-].[Na+].[Na+].[Na+] [sodium citrate]	8.22
CC(=O)[O-].[Na+] [sodium acetate]	8.46
O=C([O-])[O-].[Na+].[Na+] [sodium carbonate]	11.45
O=P([O-])([O-])O.[Na+].[Na+] [disodium hydrogenphosphate]	9.26
[Na+].[OH-] [sodium hydroxide]	13.56
O=P([O-])([O-])O.[K+].[K+] [dipotassium hydrogenphosphate]	9.11
